Test results reported in PubChem BioAssay AID743394 (Broad Institute, 2014).
Calls of active or inactive are those of the source.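 Rule for the calls: active = 40% activation versus positive control reached by fitted dose-response curve at or below highest valid tested dose; inconclusive = poor fit quality, or flat fit with activation between 30% and 70%; inactive = the rest.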

Assay: inactive X chromosome reactivation in XiGFP fibroblasts, dose response, imaging, 68-5-11 mouse fibroblasts, GFP, cherry-pick (AID 743394);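 note: sensitizer 5-aza-dC present in the wells at 0.5 mM final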
Settings: 68-5-11 mouse fibroblast XiGFP reporter, % GFP-positive imaging, 3 d, at 19.5 µM (top of the series)
[1] = cells co-treated with 5-aza-dC sensitizer, scaled: neutral wells 0, ellipticine wells 100

| SMILES | activation [1] | activation |
| --- | --- | --- |
| Cc1cc(NC(=O)c2ccccc2)n(-c2nc3ccccc3[nH]2)n1 | -0.016% (inactive) | – |
| O=c1[nH]c(=O)n([C@H]2C[C@H](O)[C@@H](CO)O2)cc1C(F)(F)F | -0.032% (inactive) | – |
| Cn1c(NC(=O)c2ccc(F)cc2)c(-c2ccccn2)c(=O)c2ccccc21 | 0.155% (inactive) | – |
| Oc1cc2c(c(Cl)c1O)CCNCC2c1ccccc1 (stereo unspecified) | -0.008% (inactive) | – |
| C[C@@H]1ON(C)[C@H]2C[C@H]3c4cc(-c5cccc(F)c5)ccc4CCN3C(=O)[C@@H]12 | 0.187% (inactive) | – |
| c1ccc(CCNc2nc(-c3ccccn3)nc3ccccc23)cc1 | -0.035% (inactive) | – |
| Cc1cc(/C=C2/C(=O)NC(=O)N(Cc3ccco3)C2=O)c(C)n1-c1ccccc1O | – | -0.049% (inactive) |
| Cc1ccc(S(=O)(=O)N(C)C[C@H]2OCCCC[C@@H](C)Oc3ccc(NC(=O)Nc4c(C)noc4C)cc3C(=O)N([C@H](C)CO)C[C@@H]2C)cc1 | -0.011% (inactive) | – |
| COc1ccc(C2=NOC3(CC(=O)N(c4ccc(F)cc4)C3=O)C2)cc1 (stereo unspecified) | 0.015% (inactive) | – |
| Cc1c(/C=N\NC(=O)c2cc3ccccc3o2)c2ccccc2n1C | -0.044% (inactive) | – |
| CC(C)C#Cc1ccc([C@@H]2[C@@H](CO)N3C(=O)CN(C(=O)c4ccc5c(c4)OCO5)C[C@H]23)cc1 | 0.09% (inactive) | – |
| COc1cccc(CNC(=O)CNC(=S)N(Cc2ccccc2)Cc2ccccc2F)c1 | -0.015% (inactive) | – |
| CCOC(=O)[C@]12CCC=C1N(Cc1ccccc1)C(=O)[C@H](CC(=O)N1CCSCC1)C2 | -0.008% (inactive) | – |
| CS(=O)(=O)c1ccc(S(=O)CC(=O)OCc2ccccc2)c([N+](=O)[O-])c1 (stereo unspecified) | -0.127% (inactive) | – |
| O=C(c1ccccc1Cl)N1CCSCCS1(=O)=O | 0.035% (inactive) | – |
| CCOC(=O)C1CCN(C(=O)c2ccc(NS(=O)(=O)c3ccc(F)cc3C)cc2)CC1 | 0.035% (inactive) | – |
| Cc1ccc(S(=O)(=O)Nc2ccc3c(c2)C(=O)N([C@@H](C)CO)C[C@@H](C)[C@@H](CN(C)Cc2ccc(C(=O)Nc4ccccc4N)cc2)O3)cc1 | 1.51% (inactive) | – |
| CC1C=NC(S(=O)(=O)N2CC[C@@H]3[C@@H](CO)N(C)c4ccc(-c5ccccc5)cc4[C@@H]32)=N1 (stereo partly specified) | 0.053% (inactive) | – |
| Cc1ccc(C)c(OCCC(=O)Nc2cc(S(=O)(=O)N3CCCCC3)ccc2C)c1 | -0.008% (inactive) | – |
| CCOC(=O)C1(Cc2ccccc2C)CCCN(C(=O)CSC)C1 (stereo unspecified) | -0.053% (inactive) | – |
| CN(C)C=NC(=O)c1cc(C(=O)c2ccc(Cl)cc2Cl)c[nH]1 | -0.032% (inactive) | – |
| O=C(COC(=O)/C=C/c1cccc(C(F)(F)F)c1)NC(=O)NCc1ccco1 | -0.07% (inactive) | – |

| SMILES | activation [1] | activation |
| --- | --- | --- |
| COc1ccc(-c2ccc(C(=O)NCc3cccs3)c3occc23)c(C)c1 | -0.032% (inactive) | – |
| C/C(=N\NC(=O)c1ccccc1Cl)c1ccccn1 | 3.5% (inactive) | – |
| Cc1ccc(N(C)C(=O)C2CCN(S(=O)(=O)c3ccc4c(c3)oc(=O)n4C)CC2)cc1 | 0.016% (inactive) | – |
| COc1ccc(N(CC(=O)Nc2nccs2)S(=O)(=O)c2c(C)[nH]c(=O)[nH]c2=O)cc1 | 0.033% (inactive) | – |
| CCCOc1ccc(Oc2nc(-c3ccncc3)nc3ccccc23)cc1 | 0.003% (inactive) | – |
| O=C(NCCOc1ccccc1)c1cc([N+](=O)[O-])ccc1N1CCOCC1 | 0.193% (inactive) | – |
| CN(Cc1nc(CCc2ccccc2)no1)Cc1cccs1 | -0.037% (inactive) | – |
| C[C@@H]1CN([C@@H](C)CO)C(=O)c2ccccc2-c2ccccc2CO[C@@H]1CN(C)C(=O)Nc1ccc2c(c1)OCO2 | 0.081% (inactive) | – |
| Cc1noc(C)c1S(=O)(=O)Nc1ccc2c(c1)C(=O)N([C@H](C)CO)C[C@H](C)[C@H](CN(C)C(=O)Nc1ccc(F)cc1)OCCCC[C@H](C)O2 | 0.022% (inactive) | – |
| COc1ccc(-c2nn(-c3ccccc3)cc2C(=O)NC(=S)Nc2cc(Cl)ccc2Cl)cc1 | 3.67% (inactive) | – |
| COc1ccc(CN(C)Cc2nc(Cc3ccccc3Cl)no2)cc1OC | -0.032% (inactive) | – |
| O=C1CCCC(O)=C1Sc1cc(Cl)c(Cl)cc1Cl | 0.118% (inactive) | – |
| CCN(CC)CCCNC1=C(Cl)C(=O)c2ccccc2C1=O | -0.032% (inactive) | – |
| O=C1c2ccccc2C(=Cc2cccnc2)c2ccccc21 | 0.325% (inactive) | – |
| CCNC(=O)C[C@@H]1CC[C@H]2[C@@H](COC[C@@H](O)CN2C(=O)C2CCCC2)O1 | -0.016% (inactive) | – |
| O=C1C=CC(=O)C(CNc2ccc(C(=O)OCc3ccccc3)cc2)=C1 | -0.05% (inactive) | – |
| Nc1nnc(SCC(=O)c2ccc([N+](=O)[O-])cc2)s1 | 0.961% (inactive) | – |
| O=C(CCN1CCCCC1)NCC[C@@H]1CC[C@H](NC(=O)C2CCCCC2)[C@H](CO)O1 | 0.052% (inactive) | – |
| CN(C)C(=O)C[C@@H]1C=C[C@H](NS(=O)(=O)c2ccccc2)[C@@H](CO)O1 | 0.689% (inactive) | – |
| CCOC(=O)c1cnc(-c2ccc(C(F)(F)F)cn2)[nH]c1=O | -0.017% (inactive) | – |
| Cc1ccccc1-c1ccc(C2[C@@H]3CN(Cc4cocn4)C[C@H]2N3)cc1 (stereo partly specified) | -0.031% (inactive) | – |
| O=C(OCc1cc(=O)n2c(n1)sc1ccccc12)c1ccc(O)cc1O | 0.076% (inactive) | – |

| SMILES | activation [1] | activation |
| --- | --- | --- |
| Cc1ccnc(NS(=O)(=O)c2ccc3c(c2)CCO3)c1 | 0.025% (inactive) | – |
| Cc1[nH]c2ccccc2c1/C=N/Nc1nc2ccccc2[nH]1 | -0.075% (inactive) | – |
| COC(=O)Cn1cc(/C=C2\C(=O)NC(=O)N(c3ccc(OC)cc3)C2=O)c2ccccc21 | – | 0.09% (inactive) |
| C[C@@H]1CCCCO[C@@H](CN(C)C(=O)Nc2ccc(C(F)(F)F)cc2)[C@@H](C)CN([C@H](C)CO)C(=O)c2cc(NS(=O)(=O)c3ccc(F)cc3)ccc2O1 | -0.031% (inactive) | – |
| CO[C@H]1CN(C)C(=O)c2ccc(NC(=O)C3CCCCC3)cc2OC[C@H](C)NC[C@@H]1C | 0.017% (inactive) | – |
| COc1cccc(C(=O)c2c(-c3ccccc3)ncc3cc(OC)c(OC)cc23)c1 | 0.006% (inactive) | – |
| CN(C1CCCCC1)S(=O)(=O)c1ccc(C(=O)N2CCN(c3nc4ccccc4s3)CC2)cc1 | 0.125% (inactive) | – |
| N/C(=N\OC(=O)C12CC3CC(CC(C3)C1)C2)c1ccncc1 | 0.008% (inactive) | – |
| O=C(N/N=C/c1ccc(Br)s1)c1ccc([N+](=O)[O-])cc1 | 1.59% (inactive) | – |
| CC(C)(C=O)C1=CC(=O)c2ccccc2C1=O | -0.07% (inactive) | – |
| O=C(c1cccc2ccccc12)C1CCCN(Cc2ccon2)C1 (stereo unspecified) | – | 0.107% (inactive) |
| CN(C)CC(=O)N1CC2(C1)[C@@H](c1ccccc1)[C@H](CO)N2C(=O)C1CC1 | -0.015% (inactive) | – |
| CCOC(=O)C1=C(C)NC(=S)NC1/C=C/c1ccccc1 (stereo unspecified) | -0.024% (inactive) | – |
| Cc1occc1C(=O)N/N=C/C(Br)=C\c1ccccc1 | -0.024% (inactive) | – |
| Cc1cc(N)ncc1[N+](=O)[O-] | 0.508% (inactive) | – |
| Cc1ccccc1NC(=O)CN1C(=O)S/C(=C\c2ccc(-c3cc(C(=O)O)ccc3C)o2)C1=O | 0.024% (inactive) | – |
| O=C(CCl)N=c1sccn1Cc1ccc(Cl)cc1Cl | 0.591% (inactive) | – |
| CCCC(=O)OCCNc1cc(Sc2nccn2C)c2nonc2c1[N+](=O)[O-] | -0.034% (inactive) | – |
| COc1ccc(-n2c(=O)n(Cc3ccccc3)c(=O)c3[nH]cnc32)cc1 | -0.053% (inactive) | – |
| C=CCn1c(O)c(C(C)=NCc2ccc3c(c2)OCO3)c(=O)[nH]c1=O | – | 0.026% (inactive) |
| O=c1c2cc(-c3ccccc3)sc2nc2n1N=C(c1ccccc1)CS2 | 1.54% (inactive) | – |
| O=CNc1ccc2c(c1)Cc1cc([N+](=O)[O-])ccc1-2 | 0.191% (inactive) | – |

| SMILES | activation [1] | activation |
| --- | --- | --- |
| ClC1CCCCC1n1nnc2ccccc21 (stereo unspecified) | 0.006% (inactive) | – |
| Cc1ccccc1NC(=O)c1cn2c(nc3ccccc32)c(C#N)c1C | 3.72% (inactive) | – |
| Cc1ccc(Cl)cc1NC(=O)CCC(=O)O | -0.002% (inactive) | – |
| NC(=S)Nc1ccc(Cl)cc1Cl | -0.001% (inactive) | – |
| CC(OCCN(C)C)C(=O)C12CC3CC(CC(C3)C1)C2 (stereo unspecified) | 0.008% (inactive) | – |
| COC(=O)c1ccc(NC(=O)c2nc(S(=O)(=O)Cc3cccc(C)c3)ncc2Cl)cc1 | -0.008% (inactive) | – |
| CCN(CC)S(=O)(=O)c1ccc(Cl)c(NC(=O)COC(=O)c2c(C)noc2C)c1 | 0.03% (inactive) | – |
| O=C(C[C@@H]1C[C@@H]2c3cc(NC(=O)C4CCC4)ccc3O[C@@H]2[C@@H](CO)O1)NCc1ccc(Cl)cc1 | 0.899% (inactive) | – |
| Cn1cc(C(=O)N/N=C/C(Br)=C/c2ccccc2)ccc1=O | -0.07% (inactive) | – |
| CC(=O)c1ccc2c(c1)OCCOCCOCCOCCOCCO2 | -0.021% (inactive) | – |
| COc1ccccc1N(C)c1cc2c(c3c1ccn3C)C1CCC2C1 (stereo unspecified) | 0.146% (inactive) | – |
| O=C1N[C@H](Cc2ccccc2)COCc2cn(nn2)CC[C@@H]1Cc1ccccc1 | 0.033% (inactive) | – |
| CCc1ccc(NS(=O)(=O)c2ccc3[nH]cc(C(=O)N4CCc5ccccc54)c(=O)c3c2)cc1 | -0.01% (inactive) | – |
| C[C@@H]1CCCCO[C@H](CN(C)Cc2ccc3c(c2)OCO3)[C@@H](C)CN([C@H](C)CO)C(=O)c2cc(NS(=O)(=O)c3ccc(F)cc3)ccc2O1 | 0.107% (inactive) | – |
| COC(=O)C(C(C)C)N1CCc2c(C)nc3c(C#N)cnn3c21 (stereo unspecified) | 0.052% (inactive) | – |
| Clc1ccc(-c2nc(-c3ccncc3)no2)c(Cl)c1 | -0.034% (inactive) | – |
| C[C@@H]1CCCCO[C@H](CN(C)C(=O)Nc2ccc(C(F)(F)F)cc2)[C@H](C)CN([C@H](C)CO)C(=O)c2cc(NC(=O)CCC(F)(F)F)ccc2O1 | 0.24% (inactive) | – |
| NS(=O)(=O)c1cccc(-n2cnnn2)c1 | 0.065% (inactive) | – |
| CC1CC(C)CN(C(=O)CSCC(=O)Nc2nc(-c3cccs3)cs2)C1 (stereo unspecified) | -0.047% (inactive) | – |
| C=CCn1c(SCC(=O)N(CC)C2CCS(=O)(=O)C2)nc2sc3c(c2c1=O)CCC3 (stereo unspecified) | -0.061% (inactive) | – |
